Results from ChEMBL document CHEMBL5465560, “Selectivity Literature for EUbOPEN Chemogenomic Library” (2024).

Experiments:
[1] = molecular target: T1, Phosphatidylinositol 4,5-bisphosphate 3-kinase catalytic subunit delta isoform (Homo sapiens) (UniProt O00329); experiment: Selectivity interaction (Kinase panel (KiNativ target engagement assay in Jurkat cells)) EUB0001635a PIK3CD; type: cell-based; conditions: Selectivity number of off-targets 0.0, Selectivity number of targets 233.0, Source Knowledge https://www.sciencedirect.com/science/article/pii/S2451945619300674?via%3Dihub, at 1 µM
T1 sequence (whole entry): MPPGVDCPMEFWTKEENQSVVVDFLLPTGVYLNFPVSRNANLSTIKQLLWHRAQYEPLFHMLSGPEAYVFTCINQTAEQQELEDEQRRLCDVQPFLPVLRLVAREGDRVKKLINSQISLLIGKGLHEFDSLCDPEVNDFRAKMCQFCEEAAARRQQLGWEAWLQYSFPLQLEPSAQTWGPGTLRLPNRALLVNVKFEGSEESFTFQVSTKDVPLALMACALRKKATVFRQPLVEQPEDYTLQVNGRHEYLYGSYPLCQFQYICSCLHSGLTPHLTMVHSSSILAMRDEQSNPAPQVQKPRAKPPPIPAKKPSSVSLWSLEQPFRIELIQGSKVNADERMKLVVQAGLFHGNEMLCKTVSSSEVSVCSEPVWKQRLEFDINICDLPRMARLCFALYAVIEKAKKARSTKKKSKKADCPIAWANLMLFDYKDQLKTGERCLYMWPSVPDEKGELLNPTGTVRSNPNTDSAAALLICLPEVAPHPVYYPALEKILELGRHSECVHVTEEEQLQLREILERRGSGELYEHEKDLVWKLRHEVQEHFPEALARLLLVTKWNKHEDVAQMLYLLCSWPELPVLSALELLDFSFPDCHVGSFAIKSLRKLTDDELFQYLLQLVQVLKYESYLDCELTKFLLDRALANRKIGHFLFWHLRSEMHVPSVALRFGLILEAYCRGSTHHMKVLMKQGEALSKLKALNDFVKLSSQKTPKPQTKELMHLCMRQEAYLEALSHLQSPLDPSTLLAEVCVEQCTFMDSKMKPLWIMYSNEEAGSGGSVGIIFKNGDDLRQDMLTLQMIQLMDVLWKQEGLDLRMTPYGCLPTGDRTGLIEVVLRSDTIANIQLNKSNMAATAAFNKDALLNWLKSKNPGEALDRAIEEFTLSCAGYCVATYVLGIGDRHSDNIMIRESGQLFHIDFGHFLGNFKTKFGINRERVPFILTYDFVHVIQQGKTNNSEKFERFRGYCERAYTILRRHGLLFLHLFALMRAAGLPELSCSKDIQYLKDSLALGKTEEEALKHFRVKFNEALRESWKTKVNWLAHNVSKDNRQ

[2] = molecular target: Serine/threonine-protein kinase 10 (Homo sapiens) (UniProt O94804); experiment: Selectivity interaction (KinomeScan (DiscoverX)) EUB0001079a STK10; conditions: at 1 µM
[3] = molecular target: Tyrosine-protein kinase Lyn (Homo sapiens, UniProt P07948); experiment: Selectivity interaction (Kinase panel (Invitrogen)) EUB0000639a LYN; conditions: at 200 nM
[4] = molecular target: T2, Inhibitor of nuclear factor kappa-B kinase subunit beta (Homo sapiens) (UniProt O14920); experiment: Selectivity interaction (ActivX KiNativ screen (kinase selectivity in THP-1 cell lysates)) EUB0000639a IKBKB; type: subcellular; conditions: lysate, at 0.04 µM
T2 sequence (whole entry): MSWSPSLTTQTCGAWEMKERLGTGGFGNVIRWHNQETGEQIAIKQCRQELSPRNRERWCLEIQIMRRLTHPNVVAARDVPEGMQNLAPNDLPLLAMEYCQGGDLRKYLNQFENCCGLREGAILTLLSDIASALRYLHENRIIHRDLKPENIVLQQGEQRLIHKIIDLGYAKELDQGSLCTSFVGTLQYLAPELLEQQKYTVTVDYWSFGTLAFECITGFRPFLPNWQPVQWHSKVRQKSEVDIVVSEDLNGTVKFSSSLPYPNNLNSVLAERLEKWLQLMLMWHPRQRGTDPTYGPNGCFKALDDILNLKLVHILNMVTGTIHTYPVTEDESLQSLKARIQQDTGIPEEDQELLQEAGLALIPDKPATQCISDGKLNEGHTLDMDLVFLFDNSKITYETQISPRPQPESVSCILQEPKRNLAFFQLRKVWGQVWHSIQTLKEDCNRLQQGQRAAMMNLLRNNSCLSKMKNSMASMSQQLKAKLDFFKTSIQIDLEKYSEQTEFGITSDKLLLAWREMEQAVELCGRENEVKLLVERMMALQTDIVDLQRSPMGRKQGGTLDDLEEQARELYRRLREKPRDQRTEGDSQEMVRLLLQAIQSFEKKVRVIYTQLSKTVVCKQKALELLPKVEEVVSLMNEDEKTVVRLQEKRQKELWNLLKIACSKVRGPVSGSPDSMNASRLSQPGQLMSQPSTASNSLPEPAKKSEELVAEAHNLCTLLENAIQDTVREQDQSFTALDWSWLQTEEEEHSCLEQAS

Serine/threonine-protein kinase 10 (Homo sapiens), sequence (O94804 whole entry, looked up): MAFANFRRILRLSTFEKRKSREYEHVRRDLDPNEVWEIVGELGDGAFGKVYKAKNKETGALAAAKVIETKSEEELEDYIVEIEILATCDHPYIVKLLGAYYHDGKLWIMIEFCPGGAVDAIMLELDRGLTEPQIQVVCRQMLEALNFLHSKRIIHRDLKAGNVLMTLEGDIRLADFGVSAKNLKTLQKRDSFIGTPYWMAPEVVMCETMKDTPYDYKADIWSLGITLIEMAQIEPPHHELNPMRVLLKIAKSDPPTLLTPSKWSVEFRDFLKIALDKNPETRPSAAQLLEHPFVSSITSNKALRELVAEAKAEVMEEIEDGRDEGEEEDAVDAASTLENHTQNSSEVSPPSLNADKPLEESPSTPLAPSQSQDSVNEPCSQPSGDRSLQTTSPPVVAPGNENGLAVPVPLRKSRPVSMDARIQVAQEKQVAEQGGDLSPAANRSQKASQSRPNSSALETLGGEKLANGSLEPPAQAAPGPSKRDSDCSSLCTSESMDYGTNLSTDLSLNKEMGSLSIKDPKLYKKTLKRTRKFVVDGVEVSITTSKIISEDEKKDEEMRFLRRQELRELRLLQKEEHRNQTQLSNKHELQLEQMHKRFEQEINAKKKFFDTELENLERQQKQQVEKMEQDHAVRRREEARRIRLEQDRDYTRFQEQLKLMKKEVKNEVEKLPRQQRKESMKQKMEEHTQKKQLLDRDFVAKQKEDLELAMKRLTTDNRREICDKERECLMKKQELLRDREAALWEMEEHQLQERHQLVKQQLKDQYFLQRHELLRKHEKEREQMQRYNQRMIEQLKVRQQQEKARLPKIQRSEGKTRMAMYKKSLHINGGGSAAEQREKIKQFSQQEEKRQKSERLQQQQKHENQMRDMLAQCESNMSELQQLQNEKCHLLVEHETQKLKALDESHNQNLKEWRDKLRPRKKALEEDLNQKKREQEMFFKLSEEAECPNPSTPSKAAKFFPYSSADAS
Tyrosine-protein kinase Lyn, sequence (P07948 2-512 limits assumed): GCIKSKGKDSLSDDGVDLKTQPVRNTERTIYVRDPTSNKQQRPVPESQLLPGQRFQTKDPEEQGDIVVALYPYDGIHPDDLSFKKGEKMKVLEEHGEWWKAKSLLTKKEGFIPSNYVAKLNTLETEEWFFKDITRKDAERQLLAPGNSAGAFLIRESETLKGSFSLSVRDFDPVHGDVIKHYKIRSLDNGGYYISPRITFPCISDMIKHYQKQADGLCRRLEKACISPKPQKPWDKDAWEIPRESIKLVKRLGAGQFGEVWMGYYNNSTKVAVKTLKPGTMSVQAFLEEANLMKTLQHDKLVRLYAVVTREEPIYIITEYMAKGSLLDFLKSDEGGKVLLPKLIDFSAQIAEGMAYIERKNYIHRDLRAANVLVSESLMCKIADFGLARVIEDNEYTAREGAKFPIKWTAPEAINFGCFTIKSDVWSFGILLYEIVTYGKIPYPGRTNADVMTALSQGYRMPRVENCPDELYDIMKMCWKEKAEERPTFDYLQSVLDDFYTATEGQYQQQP

`C=CC(=O)Nc1ccc(C(=O)Nc2[nH]nc3c2CN(C(=O)N[C@H](CN(C)C)c2ccccc2)C3(C)C)cc1` showed a % of engagement [1] of -10.2%.

With `Nc1cnc(N2CCc3cc(S(=O)(=O)Nc4c(F)cc(Cl)cc4F)cc(N4CCCC4=O)c32)nc1` [TP-020n] the % of control [2] was 100%.

`CC[C@@H]1[C@H](F)C(=O)N[C@@H]1COc1nccc2cc(C(N)=O)c(OC)cc12` [ZIMLOVISERTIB] gave a % of inhibition [3] of 14.9% and a % of inhibition [4] of -3.9%.
